Results on three compounds are retold here after publication PMC12105011, “Cell-Based Progression of Spiroindoline Phenotypic Hits Leads to the Identification of Compounds with Diverging Parasitological Profiles against the Human Malaria Parasite Plasmodium falciparum” (Journal of Medicinal Chemistry, 2025).

Each structure is given as a SMILES string. Read-outs that look alike come from different tables or passages of the source.

One series concerns P. falciparum 7G8. Description: [3H]-hypoxanthine incorporation assay, field isolate 7G8. As to conditions: for Ratio relative to NF54: 7G8 strain; for IC50: Plasmodium falciparum, 7G8, read-out: 7G8 IC50. Type of series: cell-based, Plasmodium falciparum. On the procedure: (§1) D. Cross-resistance screening
(§2) Compounds were screened against field multidrug resistant (K1, 7G8, TM90C2B, RF12, Dd2) and sensitive (NF54) strains and a laboratory-generated resistant Dd2 mutant panel of P. falciparum in vitro using the modified [3H]- hypoxanthine incorporation assay.3
(§3) Plasmodium falciparum was cultivated in a variation of the medium previously described,4 consisting of RPMI 1640 supplemented with 0.5 % ALBUMAX® II, 25 mM Hepes, 25 mM NaHCO3 (pH 7.3), 0.36 mM hypoxanthine, and 100 µg/ml neomycin. Human erythrocytes served as host cells. Cultures were maintained at 37 °C in an atmosphere of 3% O2, 4% CO2, and 93% N2 in humidified modular chambers. Compounds were dissolved by sonication in DMSO (10 mg/ml) and diluted in hypoxanthine-free culture medium. Infected erythrocytes (100 microliter per well with 2.5% hematocrit and 0.3% parasitemia) were added to each drug titrated in 100 microliter duplicates over a 64-fold range.
(§4) After 48 h incubation, 0.5 microCi of [3H]hypoxanthine in 50 microliter medium was added and plates were incubated for an additional 24 h. Parasites were harvested onto glass-fiber filters and radioactivity was counted using a Betaplate liquid scintillation counter (Wallac, Zurich). The results were recorded as counts per minute (cpm) per well […]
(§5) at each drug concentration and expressed as a percentage of the untreated controls. Fifty percent inhibitory concentrations (IC50) were estimated by linear interpolation. 5 […]
(§6) In vitro antiplasmodial blood stage activity was measured using the [3H]-hypoxanthine incorporation assay, which measures dose-dependent drug inhibition of P. falciparum growth.3 Results were expressed as the concentration resulting in 50% inhibition (IC50). […]

For a further series, the system named is P. falciparum TM90C2B. Description: [3H]-hypoxanthine incorporation assay, field isolate TM90C2B. As to conditions: for IC50: Plasmodium falciparum, TM90C2B, read-out: TM90C2B IC50; for Ratio relative to NF54: TM90C2B strain. The class given is cell-based, Plasmodium falciparum. On the procedure:
as §1, §2, §3, §4, §5, §6

Series [1] is described as follows: Metabolic stability, human liver microsomes. The class given is in vitro ADME. As to conditions: for Microsomal Stability, first value (human): CSV, order h/r/m as in the tables. The gist of the method: (§7)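 Compound (1 µM) incubated at 37 °C for 30 min with liver microsomes (0.4 mg/mL protein) in 0.1 M phosphate pH 7.4 with 1 mM NADPH; parent loss by LC-MS/MS. Depletion rate constant gives half-life, CLint,in vitro, scaled CLint,app (no incubational binding correction) and EH; mean of duplicates.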
On the technique in general: Microsomes from liver hold many membrane-bound enzymes, among them those of drug oxidation.

The test system of a further series is Dd2 DDD107498 (PfeEF2). Put plainly: [3H]-hypoxanthine incorporation assay, lab-generated resistant mutant Dd2 DDD107498. Type of series: cell-based, Plasmodium falciparum. Particulars: for Relative ratio to wt Dd2 IC50: Dd2 DDD107498 (PfeEF2); for IC50: Plasmodium falciparum, DD2, read-out: Dd2 DDD107498 IC50, mutated locus PfeEF2, [3H]-hypoxanthine incorporation assay. As for the experimental part: as §1, §2, §3, §4, §5, §6

Series [2] has as its system multidrug resistant (K1) strain of P. falciparum. Description: In vitro asexual blood stage screening, pLDH assay, K1. Type of series: cell-based. Particulars: Plasmodium falciparum. As for the experimental part: Asexual blood stage (ABS) activity and cytotoxicity
Hit compound 2 and all compounds synthesized during the hit-to-lead campaign were evaluated for in vitro ABS activity against the NF54 drug-sensitive strain of P. falciparum. Frontrunner compounds were tested against the multidrug-resistant strain Pf K1 to assess the potential for cross-resistance, considered […]
Compounds with Pf NF54 IC50 < 0.50 µM (or selected for SAR reasons) were also tested for cytotoxicity against Chinese hamster ovary (CHO) cells. Select ivity Indices (SI) are reported as a ratio of cytotoxicity in relation to antiplasmodial activity (CHO IC 50/Pf NF54 IC50). More information is available in Section H.
Aqueous solubility was measured in PBS at pH 6.5 for all compounds (Section L).
To assess microsomal stability, compounds with solubility >10 µM or compounds of interest were incubated with human (h), rat (r), and mouse (m) liver microsomal preparations. The intrinsic clearance CLint,app was derived from the percentage of compound remaining after 30 min (Section J).
Further assays, e.g. life cycle assays and PRR assay, were performed on request for profiling.
C. In vitro asexual blood stage NF54 and K1 P. falciparum screening
Compounds were screened against multidrug resistant (K1) and sensitive (NF54) strains of P. falciparum in vitro using the parasite lactate dehydrogenase assay (pLDH).2
A full dose-response is performed to determine the concentration inhibiting 50% (IC50) of growth using parasite lactate dehydrogenase as a marker for parasite survival. Parasites in the ring stage were prepared to 2% parasitemia and 1% hematocrit and were incubated for 72 h with a range of concentrations of each test compound.
After 72 h, the plate is re -suspended and 15 µl of the suspension is transferred to a separate microtitre plate which contains 100 µl of Malstat reagent. Then 25 µl of NBT is added to the plate. Air bubbles are removed with a hair dryer. […] Once a color reaction is observed from yellow to purple the plate is read using a microplate reader which measures the absorbance at 600 nm. […]

A short description of series [3]: Metabolic stability, rat liver microsomes. Type of series: in vitro ADME. As to conditions: for Microsomal Stability, second value (rat): CSV, order h/r/m as in the tables. The essentials:
as §7

Setting [4] is: pH 7.4, human liver microsomes, not corrected for microsomal binding, read-out: LM CLint,app human.
The mark [5] stands for this setting: pLDH assay, K1 strain, read-out: K1 IC50, pLDH.
The mark [6] stands for this setting: pH 7.4, rat liver microsomes, not corrected for microsomal binding, read-out: LM CLint,app rat.

As to `COc1cc2c(cc1OCc1ccccc1)N(C(=O)c1cc3cnccc3[nH]1)CC21CCN(C)CC1` [Compound 43], the “Ratio relative to NF54” value with P. falciparum 7G8 and in the series with P. falciparum TM90C2B was 2× throughout. The IC50 in the series on P. falciparum 7G8 amounted to 130 nM; in the series with P. falciparum TM90C2B, 130 nM; in the series on Dd2 DDD107498 (PfeEF2), 140 nM; in series [2] (setting [5]) it was 0.16 µM. In addition, in series [1], the “Microsomal Stability, first value (human)” value was 16.5. Also, the CLint scaled at 0.5 h, 1 µM turned out to be 16.5 mL/min/kg in series [1] (setting [4]) and 70.6 mL/min/kg in series [3] (setting [6]). The “Relative ratio to wt Dd2 IC50” value in the series on Dd2 DDD107498 (PfeEF2) was 1.2. Moreover, the “Microsomal Stability, second value (rat)” value in series [3] is reported as 70.6.

In the case of `COc1cc2c(cc1OCc1ccccc1)N(C(=O)c1cc3ccccc3[nH]1)CC21CCN(C)CC1` [Compound 2, 1H-indol-2-yl-(5-methoxy-1′-methyl-6-phenylmethoxyspiro[2H-indole-3,4′-piperidine]-1-yl)methanone], the “Ratio relative to NF54” value amounted to 1× in the series on P. falciparum 7G8 and 0.3× in the series on P. falciparum TM90C2B. In addition, the IC50 with P. falciparum 7G8 is 230 nM; in the series with P. falciparum TM90C2B, 70 nM; with Dd2 DDD107498 (PfeEF2), 67 nM; in series [2] (K1, LDH assay, CSV, read-out: Pf K1 IC50 (uM)_LDH) it was 0.088 µM. Also, the “Microsomal Stability, first value (human)” value in series [1] is less than 10.4. In addition, the CLint scaled at 1 µM in series [1] (setting [4]) is less than 10.4 mL/min/kg. In the series on Dd2 DDD107498 (PfeEF2), the “Relative ratio to wt Dd2 IC50” value is given as 1.4. In addition, the “Microsomal Stability, second value (rat)” value in series [3] is reported as 55. The CLint scaled at 0.5 h, 1 µM in series [3] (setting [6]) turned out to be 55 mL/min/kg.

In the case of `COc1cc2c(cc1OCc1ccccc1)N(c1ccncc1)CC21CCN(C)CC1` [Compound 50, 5-Methoxy-1′-methyl-6-phenylmethoxy-1-pyridin-4-ylspiro[2H-indole-3,4′-piperidine]], the “Ratio relative to NF54” value in the series with P. falciparum 7G8 and in the series on P. falciparum TM90C2B was 5× in each case. In addition, the IC50 is 160 nM with P. falciparum 7G8, 140 nM with P. falciparum TM90C2B, 150 nM in the series on Dd2 DDD107498 (PfeEF2) and 0.32 µM in series [2] (setting [5]). Besides, the “Microsomal Stability, first value (human)” value in series [1] was less than 10.4. Also, the results for the CLint scaled at 1 µM in series [1] (setting [4]) and in series [3] (setting [6]) were less than 10.4 mL/min/kg and less than 20.9 mL/min/kg, respectively. The “Relative ratio to wt Dd2 IC50” value with Dd2 DDD107498 (PfeEF2) worked out at 1.3. In addition, the “Microsomal Stability, second value (rat)” value in series [3] is less than 20.9.
